Assay: Inhibition of HIV1 3B gp41-induced cell-cell fusion between viral protein expressing human H9 cells and MT-2 target cells assessed as number of syncytia formation treated for 2 hrs measured after 6 hrs

Cc1cc2c(c(O)c1-c1c(C)cc3c(c1O)/C(=C/NC(C)C(=O)NC(C)C(=O)O)C(=O)C(O)=C3C(C)C)/C(=C/NC(C)C(=O)NC(C)C(=O)O)C(=O)C(O)=C2C(C)C (configuration not stated)
IC50: 7.14 µM

Cc1cc2c(c(O)c1-c1c(C)cc3c(c1O)/C(=C/NC(C)S(=O)(=O)O)C(=O)C(O)=C3C(C)C)/C(=C/NC(C)S(=O)(=O)O)C(=O)C(O)=C2C(C)C (configuration not stated)
IC50: 6.67 µM
